Results from patent publication US10093642B2, “Multitarget hedgehog pathway inhibitors and uses thereof” (UNIVERSITA' DEGLI STUDI DI SIENA, priority 2013, dated 2018).

Test system: not given
Assay: not given
Settings: not given

melting point [°C]	Molecule
128.4 to 130.2	COc1cc(OC)c2c(=O)c(-c3ccc(OCc4ccc(C(F)(F)F)cc4)c(OC)c3)coc2c1 [NT15, 5,7-Dimethoxy-3-[3-methoxy-4-(4-trifluoromethyl-benzyloxy)-phenyl]-chromen-4-one]
126	COc1cc(OC)c2c(=O)c(-c3ccc(OC)c(OCc4ccccc4)c3)coc2c1 [NT9, 3-(3′-Benzyloxy-4′-methoxyphenyl)-5,7-dimethoxy-4H-chromen-4-one]
128.6 to 129.1	COc1cc(OC)c2c(=O)c(-c3ccc(OC)c(OCc4ccc(C(F)(F)F)cc4)c3)coc2c1 [NT11, 5,7-Dimethoxy-3-[4-methoxy-3-(4-trifluoromethyl-benzyloxy)-phenyl]-chromen-4-one]
130.7 to 131.8	COc1cc(OC)c2c(=O)c(-c3ccc(OCC=C(C)C)c(OC)c3)coc2c1 [NT12, 5,7-Dimethoxy-3-[3′-methoxy-4′-(3-methyl-but-2-enyloxy)-phenyl]-chromen-4-one]
142.8 to 143.7	COc1cc(OC)c2c(=O)c(-c3ccc(OCc4ccccc4)c(OC)c3)coc2c1 [NT13, 3-(4-Benzyloxy-3-methoxy-phenyl)-5,7-dimethoxy-chromen-4-one]

Test system: Hh pathway (Gli-RE reporter, activated by SMO agonist SAG)
Assay: Gli-luciferase reporter assay in SAG-treated NIH 3T3 Shh-light II cells
Format: cell-based
Settings: 5 μM, Shh Light II cells, preliminary results
Method: FIG. 4. Effect of active natural compounds identified by the pharmacophore screening in a luciferase assay, where the gene reporter was Gli1 and the pathway was activated by the SAG molecule, a potent SMO agonist. Natural compounds were tested at three different concentrations (1, 10 and 20 μM) and their activity was compared to that of cyclopamine, the natural compound reference inhibitor of the Hedgehog pathway, which was tested at the same doses (1, 10 and 20 μM). On both graphs the activity of cyclopamine is reported as reference standard. (A) cyclopamine, 2,4,5,3′,4′-penta-Ome chalcone and Auriculasin; (B) cyclopamine, Martinoside, Jaceidin, 2,4,5,3′,4′-penta-Ome chalcone, 3,4-di-MDO-2′,4′,5′-tri-Ome dihydrochalcone.
FIG. 6. Dose-response curve of Glabrescione B in SAG (Smoothened Agonist, 200 nM) treated NIH 3T3 Shh-light II (Shh-LII) cells. Treatment time was 48 h and normalization was against Renilla luciferase. Shown is the fold increase of Hh reporter activity compared with cells not treated with SAG.
FIG. 19. Effect of derivatives NT8, NT9, NT10, NT11, NT12, NT13, NT14 and NT15 on the Hedgehog pathway, measured at 5 μM dose in a luciferase assay where the gene reporter was Gli1 and the pathway was activated by the SAG molecule, a potent SMO agonist. […]
To investigate the inhibitory properties of Glabrescione B on Hh signaling, the inventors examined its effects in NIH 3T3 Shh-light II (Shh-LII) cells stably incorporating an Hh-responsive (Gli-RE) reporter, in which induction of the pathway occurs following treatment with the SMO agonist SAG. […] The IC50 in this assay was 0.8 μM.
The ability of Glabrescione B to suppress Hh signaling was assessed in a cellular context of Hh pathway induction. To this end, the antagonist properties of Glabrescione B were determined in Shh Light II (ATCC, cat. # CRL-2795), a murine fibroblast NIH 3T3 cell line. These cells, stably incorporating the Gli-luc reporter and the pRL-TK Renilla reniformis (as described in Taipale, Chen et al. 2000) are a standard tool used to assay Hh pathway activity. The cells that reached the confluence were treated for 48 h with the SMO agonist SAG (200 nM, Alexis, cat. #ALX-270-426-M001) in absence or in presence of Glabrescione B at the amount indicated in FIG. 6. […] Control cells were treated with only DMSO (0.5%, SERVA, cat. #39757.02) Determination of luciferase activities was carried out using the Dual-Luciferase assay according to manufacturer's instructions (Dual-Luciferase® Reporter assay system; Promega, cat. # E1980). All presented data are firefly luciferase activity reported to the Renilla control activity. […] IC50 of 0.8 μM, represents the concentration of Glabrescione B necessary to have fifty percent of inhibition.
Evaluation of the Hh inhibitory activity of these molecules at 5 μM was preliminarily conducted in vitro on Shh Light II cells (see example 2).

Molecule	Hh inhibitory activity compared with Glabrescione B
COc1cc(OC)c2c(=O)c(-c3ccc(OC)c(OCC=C(C)C)c3)coc2c1 [NT8, 3-[3′-(3-methyl-but-2-enyloxy)-4′-methoxyphenyl]-5,7-dimethoxy-4H-chromen-4-one]	more potent than Glabrescione B
COc1cc(OC)c2c(=O)c(-c3ccc(OC)c(OCc4ccccc4)c3)coc2c1 [NT9, 3-(3′-Benzyloxy-4′-methoxyphenyl)-5,7-dimethoxy-4H-chromen-4-one]	more potent than Glabrescione B

Same assay, conditions: Gli1 gene reporter, pathway activated by SAG; cyclopamine as reference

Molecule	effect on Hh pathway in luciferase assay
COc1ccc(C(=O)C=Cc2c(OC)cc(OC)c(OC)c2OC)cc1OC [2,3,4,6,3′,4′-hexa-OMe Chalcone]	inhibit the Hh pathway
COc1cc(-c2oc3cc(O)c(OC)c(O)c3c(=O)c2OC)ccc1O [Jaceidin]	inhibit the Hh pathway
COc1ccc(CCO[C@@H]2O[C@H](CO)[C@@H](OC(=O)/C=C/c3ccc(O)c(OC)c3)[C@H](O[C@@H]3O[C@@H](C)[C@H](O)[C@@H](O)[C@H]3O)[C@H]2O)cc1O [Martinoside]	inhibit the Hh pathway
COc1cc(OC)c(OC)cc1C=CC(=O)c1ccc(OC)c(OC)c1 [2,4,5,3′,4′-penta-OMe Chalcone]	inhibit the Hh pathway
COc1cc(OC)c(C(=O)CCc2ccc3c(c2)OCO3)cc1OC [3,4-di-MDO-2′,4′,5′-tri-OMe dihydrochalcone]	inhibit the Hh pathway
CC(C)=CCc1c2c(c(O)c3c(=O)c(-c4ccc(O)c(O)c4)coc13)C=CC(C)(C)O2 [Auriculasin]	inhibit the Hh pathway

Same assay, conditions: pharmacophore screening hits

Molecule	activity as Hh inhibitor in luciferase assay (classification)
Veratrin	not active
Isosophoranon	not active
O=c1c(O)c(-c2cc(O)c(O)c(O)c2)oc2cc(O)cc(O)c12 [Myricetin]	not active
CC1=CC2c3c(O)cc(/C=C/c4ccc(O)cc4O)cc3OC3(c4ccc(O)c5c4OC(C)(C)C=C5)Oc4cc(O)ccc4C(C1)C23 (stereo not drawn) [Sorocein-A]	not active
C[C@@H]1CC[C@]2(C(=O)O)CC[C@]3(C)C(=CC[C@@H]4[C@@]5(C)CC[C@@H](O)[C@](C)(CO)[C@@H]5CC[C@]43C)[C@@H]2[C@]1(C)O [Barbinervic Acid]	not active
CC(C)=CCc1c(O)ccc(C(=O)C2C(c3c(O)cc(/C=C/c4ccc(O)cc4O)cc3O)C=C(C)CC2c2ccc(O)cc2O)c1O (stereo not drawn) [Kuwanol-E]	not active
C[C@@H]1O[C@@H](O[C@H]2[C@H](Oc3cc(O)c4c(c3)O[C@H](c3ccc(O)cc3)CC4=O)O[C@H](CO)[C@@H](O)[C@@H]2O)[C@H](O)[C@H](O)[C@H]1O [Naringin]	not active
COc1ccc([C@@H]2CC(=O)c3c(O)cc(O[C@@H]4O[C@H](CO[C@@H]5O[C@@H](C)[C@H](O)[C@@H](O)[C@H]5O)[C@@H](O)[C@H](O)[C@H]4O)cc3O2)cc1O [Hesperidin]	not active
CC1=CC2c3c(ccc(C(=O)/C=C/c4ccc(O)cc4O)c3O)OC3(c4ccc(O)c5c4OC(C)(C)C=C5)Oc4cc(O)ccc4C(C1)C23 (stereo not drawn) [Sorocein-B]	not active

Test system: Hh pathway (Gli-RE reporter, activated by SMO agonist SAG)
Assay: as above
Format: cell-based
Settings: Mus musculus, moderately active class

Molecule	inhibition at 30 µM [%]
CC(C)=CCc1c2c(c(O)c3c(=O)c(-c4ccc(O)c(O)c4)coc13)C=CC(C)(C)O2 [Auriculasin]	≤ 30

Target: SMO heptahelical domain (Homo sapiens, UniProt Q99835)
Sequence (Q99835 28-787): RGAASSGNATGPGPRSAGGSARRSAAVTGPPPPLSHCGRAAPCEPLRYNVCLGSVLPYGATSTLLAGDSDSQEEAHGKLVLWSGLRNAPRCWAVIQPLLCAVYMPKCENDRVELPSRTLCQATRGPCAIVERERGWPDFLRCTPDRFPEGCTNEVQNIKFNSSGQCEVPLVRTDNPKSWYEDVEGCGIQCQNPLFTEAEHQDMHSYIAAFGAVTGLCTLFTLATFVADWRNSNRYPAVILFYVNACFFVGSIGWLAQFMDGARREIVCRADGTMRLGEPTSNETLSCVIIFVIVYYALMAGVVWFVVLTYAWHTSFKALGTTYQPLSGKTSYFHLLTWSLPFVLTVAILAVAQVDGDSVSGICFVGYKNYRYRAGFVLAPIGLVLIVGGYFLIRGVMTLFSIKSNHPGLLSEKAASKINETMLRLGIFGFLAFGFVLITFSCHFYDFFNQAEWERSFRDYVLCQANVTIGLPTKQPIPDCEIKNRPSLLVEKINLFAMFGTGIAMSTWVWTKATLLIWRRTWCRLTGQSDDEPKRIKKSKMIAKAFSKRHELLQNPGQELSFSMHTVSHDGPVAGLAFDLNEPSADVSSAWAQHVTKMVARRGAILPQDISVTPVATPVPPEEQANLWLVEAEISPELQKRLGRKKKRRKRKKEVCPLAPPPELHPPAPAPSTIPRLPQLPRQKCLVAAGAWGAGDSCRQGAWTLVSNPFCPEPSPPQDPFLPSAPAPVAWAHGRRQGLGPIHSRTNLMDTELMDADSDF
Assay: not given
Settings: cited from earlier work

Molecule	Kd [nM]
CNC1CCC(N(Cc2cccc(-c3ccncc3)c2)C(=O)c2sc3ccccc3c2Cl)CC1 (stereo not drawn) [SAG]	59
